Consider 49 compounds from the Kinase Knowledgebase extract (Sharma et al. 2016).

Molecules are shown by their SMILES. pIC50: −log10 of the molar value. A value given as a limit tells only on which side of the number the result lay.

The target in this experiment is CDK2 (human) (UniProt P24941). In words: Enzyme Assay.

On to `CCOC(=O)c1cc(-c2csc(-c3ccnc(NCC(C)C)c3)n2)c(=O)[nH]c1C`, for which the pIC50 – broadly, −log10 of the IC50, conventionally taken in molar units – was > 6.30.

`CCOC(=O)c1cc(-c2csc(CS(=O)(=O)c3ccccc3)n2)c(=O)[nH]c1COCc1ccccc1`: the pIC50 was > 6.30.

Take `CCOC(=O)c1cc(-c2csc(-c3ccnc(NCCc4cccs4)c3)n2)c(=O)[nH]c1C`: the negative-log IC50 (pIC50) is > 6.30.

With `CCOC(=O)c1cc(-c2csc(-c3ccnc(NCC(N)=O)c3)n2)c(=O)[nH]c1C`, the pIC50 was > 6.30.

Turning to `CCOC(=O)c1cc(-c2csc(-c3ccnc(CC)c3)n2)c(=O)[nH]c1C`, the pIC50 was > 6.30.

On to `CCOC(=O)c1cc(-c2csc(-c3ccnc(NC)c3)n2)c(=O)[nH]c1C`, for which the pIC50 was > 6.30.

Consider `CCOC(=O)c1cc(-c2csc(-c3ccnc(NCC4CCCC4)c3)n2)c(=O)[nH]c1C`, for which the negative logarithm of the IC50 (pIC50) is > 6.30.

Turning to `CCOC(=O)c1cc(-c2csc(-c3ccnc(NCc4ccccc4)c3)n2)c(=O)[nH]c1C`, the pIC50 was > 6.30.

As to `Cc1[nH]c(=O)c(-c2csc(-c3ccncc3)n2)cc1Br`, the pIC50 is > 6.30.

Take `CCOC(=O)c1cc(-c2csc(CS(=O)(=O)Cc3ccc(F)cc3)n2)c(=O)[nH]c1C`: the negative-log IC50 (pIC50) is > 6.30.

`Cc1[nH]c(=O)c(-c2csc(-c3ccncc3)n2)cc1C(=O)OC(C)(C)C`: the pIC50 is > 6.30.

Regarding `CCOC(=O)c1cc(-c2csc(CS(=O)(=O)c3cccs3)n2)c(=O)[nH]c1C`, the pIC50 is > 6.30.

On to `CCOC(=O)c1cc(-c2csc(-c3c(Cl)cncc3Cl)n2)c(=O)[nH]c1C`, for which the pIC50 was > 6.30.

In the case of `CCOC(=O)c1cc(-c2csc(-c3ccncc3)n2)c(=O)[nH]c1COCc1ccccc1`, the pIC50 is > 6.30.

Take `CCOC(=O)c1cc(-c2csc(CS(=O)(=O)c3ccc(Cl)cc3)n2)c(=O)[nH]c1C`: the pIC50 was > 6.30.

For `CCc1ccc(-c2csc(-c3ccncc3)n2)c(=O)[nH]1`, the pIC50 was > 6.30.

Regarding `Cc1[nH]c(=O)c(-c2csc(-c3ccnc(NCC4CC4)c3)n2)cc1C(=O)NCC1CC1`, the negative logarithm of the IC50 (pIC50) is > 6.30.

`CCCCNc1cc(-c2nc(-c3cc(C(=O)OCC)c(C)[nH]c3=O)cs2)ccn1`: the negative-log IC50 (pIC50) was > 6.30.

As for `CCOC(=O)c1cc(-c2csc(-c3ccnc(NCc4ccco4)c3)n2)c(=O)[nH]c1C`, the pIC50 is > 6.30.

Regarding `CC(C)c1ccc(-c2csc(-c3ccncc3)n2)c(=O)[nH]1`, the pIC50 was > 6.30.

`CCOC(=O)c1cc(-c2csc(-c3ccnc(NCCNC(C)C)c3)n2)c(=O)[nH]c1C`: the negative-log IC50 (pIC50) is > 6.30.

For the compound `CCOC(=O)c1cc(-c2csc(-c3ccnc(NCc4ccccn4)c3)n2)c(=O)[nH]c1C`, the pIC50 is > 6.30.

Consider `CCOC(=O)c1cc(-c2csc(-c3ccnc(NCCNC(C)=O)c3)n2)c(=O)[nH]c1C`, for which the negative logarithm of the IC50 (pIC50) was > 6.30.

As to `CCOC(=O)c1cc(-c2csc(NC)n2)c(=O)[nH]c1C`, the pIC50 is > 6.30.

As for `CCOC(=O)c1cc(-c2csc(CS(=O)(=O)c3ccccc3)n2)c(=O)[nH]c1C(C)C`, the pIC50 was > 6.30.

With `CCOC(=O)c1cc(-c2csc(CSc3ccccc3)n2)c(=O)[nH]c1C`, the negative logarithm of the IC50 (pIC50) is > 6.30.

In the case of `CCOC(=O)c1cc(-c2csc(-c3ccnc(Cl)c3)n2)c(=O)[nH]c1C`, the negative logarithm of the IC50 (pIC50) is > 6.30.

Consider `CCOC(=O)c1cc(-c2csc(-c3ccnc(NC)c3)n2)c(=O)[nH]c1C(C)C`, for which the negative-log IC50 (pIC50) was > 6.30.

As to `CCOC(=O)c1cc(-c2csc(CS(=O)(=O)c3ccccn3)n2)c(=O)[nH]c1C`, the pIC50 is > 6.30.

For the compound `CCOC(=O)c1cc(-c2csc(-c3ccnc(NCC4CC4)c3)n2)c(=O)[nH]c1C`, the negative-log IC50 (pIC50) was > 6.30.

Consider `CCOC(=O)c1cc(-c2csc(-c3ccnc(NCc4cccnc4)c3)n2)c(=O)[nH]c1C`, for which the negative logarithm of the IC50 (pIC50) is > 6.30.

For the compound `CCN(CC)CCCOC(=O)c1cc(-c2csc(-c3ccncc3)n2)c(=O)[nH]c1C(C)C`, the negative logarithm of the IC50 (pIC50) is > 6.30.

Take `CCOC(=O)c1cc(-c2csc(CS(=O)(=O)c3ccccc3)n2)c(=O)[nH]c1C1CC1`: the pIC50 is > 6.30.

In the case of `CCOC(=O)c1cc(-c2csc(CS(=O)(=O)c3cccs3)n2)c(=O)[nH]c1CC`, the pIC50 was > 6.30.

Regarding `CCOC(=O)c1cc(-c2csc(CS(=O)(=O)c3ccccc3)n2)c(=O)[nH]c1CC`, the pIC50 was > 6.30.

As for `CCOC(=O)c1cc(-c2csc(-c3ccnc(NCCN(CC)CC)c3)n2)c(=O)[nH]c1C`, the pIC50 is > 6.30.

Consider `CCOC(=O)c1cc(-c2csc(CS(=O)(=O)c3ccccc3)n2)c(=O)[nH]c1C`, for which the pIC50 was > 6.30.

In the case of `CCOC(=O)c1cc(-c2csc(-c3ccncc3)n2)c(=O)[nH]c1CC`, the pIC50 was > 6.30.

As for `Cc1[nH]c(=O)c(-c2csc(-c3ccnc(NCc4ccccn4)c3)n2)cc1C(=O)NCc1ccccn1`, the pIC50 is > 6.30.

With `CCCc1[nH]c(=O)c(-c2csc(CS(=O)(=O)c3ccccc3)n2)cc1C(=O)OCC`, the pIC50 was > 6.30.

For the compound `CCc1[nH]c(=O)c(-c2csc(-c3ccncc3)n2)cc1C(=O)OCCCN(CC)CC`, the pIC50 is > 6.30.

`CCOC(=O)c1cc(-c2csc(-c3ccncc3)n2)c(=O)[nH]c1C(C)C`: the pIC50 was > 6.30.

For the compound `CCOC(=O)c1cc(-c2csc(C(C)(C)S(=O)(=O)c3ccccc3)n2)c(=O)[nH]c1C`, the pIC50 is > 6.30.

`CCOC(=O)c1cc(-c2csc(CS(=O)(=O)c3cccs3)n2)c(=O)[nH]c1C(C)C`: the pIC50 is > 6.30.

In the case of `CCOC(=O)c1cc(-c2csc(-c3ccncc3)n2)c(=O)[nH]c1C`, the pIC50 is > 6.30.

In the case of `CCCc1[nH]c(=O)c(-c2csc(-c3ccncc3)n2)cc1C(=O)OCC`, the pIC50 is > 6.30.

For `CCc1[nH]c(=O)c(-c2csc(-c3ccncc3)n2)cc1C(=O)OCCN1CCCC1`, the pIC50 is > 6.30.

Take `CCCc1[nH]c(=O)c(-c2csc(CS(=O)(=O)c3cccs3)n2)cc1C(=O)OCC`: the pIC50 was > 6.30.

On to `CCOC(=O)c1cc(-c2csc(-c3ccnc(N)c3)n2)c(=O)[nH]c1C`, for which the pIC50 was > 6.30.
